Values quoted from earlier work as cited in article PMC12128972, “TYRA-300, an FGFR3-selective inhibitor, promotes bone growth in two FGFR3-driven models of chondrodysplasia” (JCI Insight, 2025).

Legend:
[1] = system: growth plate chondrocytes of Fgfr3^Y367C/+ mice; conditions: previous studies; cited from earlier work
children with ACH = system: children with ACH; set-up: method as in earlier work; conditions: children with ACH aged 5-12 years, once daily s.c.; 95% CI 1.22-1.97; cited from earlier work
[2] = system: Fgfr3^G374R mouse model of ACH; conditions: treatment initiated 1 day after birth; cited from earlier work
[3] = system: Fgfr3^Y367C/+ mouse model, which mimics the phenotype of ACH; set-up: method as in PMID 27064282, PMID 23200862; conditions: infigratinib 2 mg/kg, starting at 7 days of age for 10 days; cited from earlier work

Row | Compound | type X collagen staining in the HZCs [1] | increase from baseline of average linear growth velocity greater than placebo (children with ACH) [cm/year] | premature fusion of the intersphenoidal synchondrosis [2] | bone growth compared with vosoritide (800 μg/kg) [3]
1 | vosoritide: C-natriuretic peptide (CNP) analog that is a once daily subcutaneous injection (PGQEHPNARKYKGANKKGLSKGCFGLKLDRIGSMSGLGC; chains of the INN, looked up) | partial restoration | 1.57 | – | –
2 | CCN1CCN(c2ccc(Nc3cc(N(C)C(=O)Nc4c(Cl)c(OC)cc(OC)c4Cl)ncn3)cc2)CC1 [infigratinib] | partial restoration | – | did not rescue premature fusion | more bone growth than vosoritide
